Laboratory results published in paper PMC11579945, “Identification of Potential Inhibitors of Mycobacterium tuberculosis Amidases: An Integrated In Silico and Experimental Study” (ACS Omega, 2024).
“And” between values parts separate entries of the source, which are not always exact repeats. Equal values may be shown once.

Assays:
Ami1 [1] = target: T1, Ami1 (Mycobacterium tuberculosis, UniProt I6Y4D2); test: Differential scanning fluorimetry (DSF, thermal shift) with Ami1; type: binding; details: for Kd: 10 μM Ami1, fitted with Thermott, triplicate, read-out: dissociation constant (Kd); for increase of the melting temperature (Tm) of the amidase: compared to Tm of the protein in the absence of any compound
T1 sequence (I6Y4D2 25-241 limits assumed): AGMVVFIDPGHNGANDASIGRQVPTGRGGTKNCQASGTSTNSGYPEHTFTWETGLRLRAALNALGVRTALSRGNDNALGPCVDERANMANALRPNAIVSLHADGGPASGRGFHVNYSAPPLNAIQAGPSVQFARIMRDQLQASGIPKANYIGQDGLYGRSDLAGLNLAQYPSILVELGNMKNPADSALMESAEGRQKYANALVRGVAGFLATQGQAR
Description: DSF assays were conducted using a QuantStudio3 real-time PCR system from Thermo Fisher Scientific, with a MicroAmp Fast 96-well reaction plate and covered with the MicroAmp Optical Adhesive Film (both from Thermo Fisher Scientific). The final reaction volume in each well was 20 μL, containing 10 μM Ami1 in buffer (20 mM HEPES pH 7.5, 100 mM NaCl, 1% DMSO) and 5× SYPRO Orange, either in the absence or presence of various concentrations of compounds. As a control, identical experiments were performed without protein. The temperature was increased from 25 to 99 °C at a gradual rate of 0.2 °C per 12.5 s. Data analysis and dissociation constants (Kd) were determined using the Thermott web application (https://thermott.com).[37],[38] Melting curves were exported from Thermott and visualized using the GraphPad Prism program. All experiments were performed by triplicate.

Ami1 [2] = target: T1, Ami1; details: 10 mM EDTA; cited from earlier work
Ami1 [3] = target: T1, Ami1; type: binding; details: ITC
Ami1Mab = test system: Ami1Mab; parameters: method as in PMID 33158165; details: cited from earlier work

Structure (SMILES): O=C(NNc1ccc([N+](=O)[O-])cc1[N+](=O)[O-])c1ccccc1 [1a, N′-(2,4-Dinitrophenyl)benzohydrazide]
- Kd (Ami1 [1]; DSF): 2.71 ± 0.55 µM

Structure (SMILES): COc1ccc(C(=O)NNc2ccc([N+](=O)[O-])cc2[N+](=O)[O-])cc1 [1b, N′-(2,4-Dinitrophenyl)-4-methoxybenzohydrazide]
- Kd (Ami1 [1]; DSF): 4.27 ± 1.13 µM

Structure (SMILES): O=C(NNc1ccc([N+](=O)[O-])cc1[N+](=O)[O-])c1ccc(Cl)cc1 [1c, 4-Chloro-N′-(2,4-dinitrophenyl)benzohydrazide]
- Kd (Ami1 [1]; DSF): 9.07 ± 1.88 µM

Structure (SMILES): O=C(NNc1ccc([N+](=O)[O-])cc1[N+](=O)[O-])c1ccc(F)cc1 [1d, N′-(2,4-Dinitrophenyl)-4-fluorobenzohydrazide]
- Kd (Ami1 [1]; DSF): 1.65 ± 0.39 µM

Structure (SMILES): O=C(C=Cc1ccccc1)NNc1ccc([N+](=O)[O-])cc1[N+](=O)[O-] [1e, N′-(2,4-Dinitrophenyl)cinnamohydrazide]
- increase in Kd compared with derivates 1a–1d (Ami1 [1]; DSF): 10 fold
- Kd (Ami1 [1]; DSF): 36.1 ± 7.1 µM

Structure (SMILES): O=C(NNc1ccc([N+](=O)[O-])cc1[N+](=O)[O-])C1CC1 [1f, N′-(2,4-Dinitrophenyl)cyclopropanecarbohydrazide]
- interaction with Ami1 (Ami1 [1]; DSF dose-response): no interaction

Structure (SMILES): O=C(O)CN(CCN(CC(=O)O)CC(=O)O)CC(=O)O [EDTA]
- hydrolytic activity of Ami1 after treatment (Ami1 [2]): abolished

Structure (SMILES): O=C(NNc1ccc([N+](=O)[O-])cc1[N+](=O)[O-])C1CC1c1ccccc1 (stereo not shown) [compound 1]
- Kd (Ami1 [1]; DSF): 6.69 ± 0.79 µM
- increase of the melting temperature (Tm) of the amidase (Ami1 [1]): approximately 2 °C

Structure (SMILES): Ic1ccccc1-c1nn[nH]n1 [compound 5]
- ΔGb (Ami1 [3]; 25 °C, pH 7.5): –6.02 kcal/mol
- ΔHb (Ami1 [3]; 25 °C, pH 7.5): –0.37 ± 0.08 kcal/mol
- n (stoichiometry) (Ami1 [3]; single binding-site model): 0.7 and 0.7 ± 0.1
- Kd (Ami1 [1]; DSF): 39 ± 6.1 µM
- increase of the melting temperature (Tm) of the amidase (Ami1 [1]): approximately 2 °C

Structure (SMILES): Nc1ccccc1-c1nnn[nH]1 [inhibitor II]
- concentration from which inhibition of the hydrolytic activity of Ami1Mab was observed (Ami1Mab): ≥ 800 µM
